Results published in ChEMBL document CHEMBL6134857, “Novel Spiro-Barbiturates Can Reverse the Action of General Anesthetics on the GABAAR” (J Med Chem, 2025).

Columns and labels:
Format in all cases: cell membranes
[1] = biological target: T1, GABA-A receptor; alpha-1/beta-3/gamma-2 (Homo sapiens, UniProt P14867+P18507+P28472); assay: Positive allosteric modulation on [3H]muscimol binding to full length human N-terminal flag-tagged alpha1-beta3-C-terminal 1D4-tagged gamma2 GABAA receptor extracted from Tetracycline-resistant HEK293 cell membrane assessed as [3H]muscimol binding incubated for 30 mins
T1 sequence (P14867 whole entry): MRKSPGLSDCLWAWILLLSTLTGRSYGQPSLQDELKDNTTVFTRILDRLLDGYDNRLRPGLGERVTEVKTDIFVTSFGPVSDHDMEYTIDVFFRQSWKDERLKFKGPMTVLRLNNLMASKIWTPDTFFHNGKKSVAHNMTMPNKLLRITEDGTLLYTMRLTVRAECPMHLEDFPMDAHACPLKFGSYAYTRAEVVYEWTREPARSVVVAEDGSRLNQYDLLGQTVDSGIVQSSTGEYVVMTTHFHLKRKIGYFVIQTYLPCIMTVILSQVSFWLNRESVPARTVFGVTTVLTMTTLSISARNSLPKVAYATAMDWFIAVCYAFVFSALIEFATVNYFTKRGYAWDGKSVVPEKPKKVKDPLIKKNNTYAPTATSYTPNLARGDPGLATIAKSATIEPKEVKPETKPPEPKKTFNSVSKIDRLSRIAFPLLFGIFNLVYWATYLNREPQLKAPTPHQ
T1 sequence (P18507 whole entry): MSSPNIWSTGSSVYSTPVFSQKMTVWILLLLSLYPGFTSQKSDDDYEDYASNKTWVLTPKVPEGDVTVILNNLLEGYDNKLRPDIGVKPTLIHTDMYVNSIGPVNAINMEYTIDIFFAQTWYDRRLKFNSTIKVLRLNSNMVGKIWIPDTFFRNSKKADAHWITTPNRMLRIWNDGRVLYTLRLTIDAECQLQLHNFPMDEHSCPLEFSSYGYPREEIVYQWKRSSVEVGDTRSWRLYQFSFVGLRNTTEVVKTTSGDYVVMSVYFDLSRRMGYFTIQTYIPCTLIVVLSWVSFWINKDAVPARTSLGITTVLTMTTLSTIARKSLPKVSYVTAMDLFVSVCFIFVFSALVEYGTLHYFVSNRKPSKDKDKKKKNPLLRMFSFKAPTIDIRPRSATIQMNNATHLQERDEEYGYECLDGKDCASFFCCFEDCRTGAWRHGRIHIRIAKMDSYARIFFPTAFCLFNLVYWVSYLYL
T1 sequence (P28472 whole entry): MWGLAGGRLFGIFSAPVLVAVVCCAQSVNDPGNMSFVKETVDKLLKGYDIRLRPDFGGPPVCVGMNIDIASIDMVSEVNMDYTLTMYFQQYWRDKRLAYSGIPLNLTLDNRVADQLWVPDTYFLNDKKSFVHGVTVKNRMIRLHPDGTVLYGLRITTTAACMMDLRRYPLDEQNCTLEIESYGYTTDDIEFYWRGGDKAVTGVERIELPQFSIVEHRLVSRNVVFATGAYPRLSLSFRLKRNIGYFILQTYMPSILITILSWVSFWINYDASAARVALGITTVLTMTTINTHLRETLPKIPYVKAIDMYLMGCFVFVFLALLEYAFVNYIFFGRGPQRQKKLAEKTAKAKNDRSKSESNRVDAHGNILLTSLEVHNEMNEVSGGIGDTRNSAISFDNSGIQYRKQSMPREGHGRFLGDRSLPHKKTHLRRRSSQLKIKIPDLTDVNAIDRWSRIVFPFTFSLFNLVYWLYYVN

[2] = biological target: T2, GABA-A receptor; alpha-1/beta-3/gamma-2 (Homo sapiens) (UniProt P14867+P18507+P28472); assay: Inhibition of R-mTFD-MPAB-induced [3H]muscimol binding to full length human N-terminal flag-tagged alpha1-beta3-C-terminal 1D4-tagged gamma2 GABAA receptor extracted from Tetracycline-resistant HEK293 cell membrane assessed as fold change at 300 uM incubated for 30 mins; details: filed as modulator
[3] = biological target: T1, GABA-A receptor; alpha-1/beta-3/gamma-2; assay: Inhibition of R-mTFD-MPAB-induced [3H]muscimol binding to full length human N-terminal flag-tagged alpha1-beta3-C-terminal 1D4-tagged gamma2 GABAA receptor extracted from Tetracycline-resistant HEK293 cell membrane incubated for 30 mins
[4] = biological target: T2, GABA-A receptor; alpha-1/beta-3/gamma-2 (Homo sapiens); assay: Effect on [3H]muscimol binding to full length human N-terminal flag-tagged alpha1-beta3-C-terminal 1D4-tagged gamma2 GABAA receptor extracted from Tetracycline-resistant HEK293 cell membrane assessed as fold change in [3H]muscimol binding at 300 uM incubated for 30 mins; details: filed as modulator
[5] = biological target: T2, GABA-A receptor; alpha-1/beta-3/gamma-2 (Homo sapiens); assay: (§1) Modulation of [3H]flunitrazepam binding to full length human N-terminal flag-tagged alpha1-beta3-C-terminal 1D4-tagged gamma2 GABAA receptor extracted from Tetracycline-resistant HEK293 cell membrane assessed as fold change in [3H]flunitrazepam binding at 300 uM incubated for 30 mins; details: filed as modulator
[6] = biological target: T2, GABA-A receptor; alpha-1/beta-3/gamma-2 (Homo sapiens); assay: Positive allosteric modulation on R-mTFD-MPAB-induced [3H]muscimol binding to full length human N-terminal flag-tagged alpha1-beta3-C-terminal 1D4-tagged gamma2 GABAA receptor extracted from Tetracycline-resistant HEK293 cell membrane at 300 uM incubated for 30 mins relative to control
[7] = biological target: T2, GABA-A receptor; alpha-1/beta-3/gamma-2 (Homo sapiens); assay: as §1, with “Inhibition” for “Modulation”, “reduction” for “fold change”, “mins relative to control” for “mins”
[8] = biological target: T1, GABA-A receptor; alpha-1/beta-3/gamma-2; assay: Mixed-type inhibition of R-mTFD-MPAB-induced [3H]muscimol binding to full length human N-terminal flag-tagged alpha1-beta3-C-terminal 1D4-tagged gamma2 GABAA receptor extracted from Tetracycline-resistant HEK293 cell membrane incubated for 30 mins
[9] = biological target: T1, GABA-A receptor; alpha-1/beta-3/gamma-2; assay: Mixed effect on [3H]muscimol binding to full length human N-terminal flag-tagged alpha1-beta3-C-terminal 1D4-tagged gamma2 GABAA receptor extracted from Tetracycline-resistant HEK293 cell membrane assessed as [3H]muscimol binding incubated for 30 mins
[10] = biological target: T2, GABA-A receptor; alpha-1/beta-3/gamma-2 (Homo sapiens); assay: Inhibition of R-mTFD-MPAB-induced [3H]muscimol binding to full length human N-terminal flag-tagged alpha1-beta3-C-terminal 1D4-tagged gamma2 GABAA receptor extracted from Tetracycline-resistant HEK293 cell membrane at 300 uM incubated for 30 mins relative to control
[11] = biological target: T2, GABA-A receptor; alpha-1/beta-3/gamma-2 (Homo sapiens); assay: Effect on [3H]muscimol binding to full length human N-terminal flag-tagged alpha1-beta3-C-terminal 1D4-tagged gamma2 GABAA receptor extracted from Tetracycline-resistant HEK293 cell membrane assessed as [3H]muscimol binding at 300 uM incubated for 30 mins relative to control

SMILES | EC50 [1] [µM] | fold change (FC) [2] | IC50 [3] [µM] | fold change (FC) [4] | other results
CC(C)c1ccc2c(c1)C1(CC2)C(=O)NC(=O)N(C)C1=O (stereo in doubt; 5h-1) [listing 1 of 2 here] | 32 |  |  |  | 
CC(C)c1ccc2c(c1)C1(CC2)C(=O)NC(=O)N(C)C1=O (stereo in doubt; 5h-2) | 38 |  |  |  | 
CN=C1NC(=O)C2(CCc3ccccc32)C(=O)N1 (stereo not drawn) |  | 0.35 | 99 | -0.09 | 
CC(C)c1ccc2c(c1)C1(CC2)C(=O)NC(=O)N(C)C1=O (stereo in doubt; 5h-1) [listing 2 of 2 here] |  | 0.73 |  | 0.8 | fold change (FC) [5]: 0.84; Activity ([6]; filed as positive allosteric modulator): 80%; inhibition [7]: 12%
Cc1ccc2c(c1)C1(CC2)C(=O)NC(=O)N(C)C1=O (stereo in doubt; 4h-2) |  |  |  |  | IC50 [8]: 38 µM; EC50 [9]: 32 µM
O=C1NC(=O)C2(CC(O)c3ccccc32)C(=O)N1 (stereo in doubt; 1t-2) |  |  | 113 |  | 
CC(C)c1ccc2c(c1)C1(CC2)C(=O)NC(=O)NC1=O | 22 | 0.9 |  | 0.26 | inhibition [10]: > 40%; Activity [6]: 20%; Activity [11]: < 10%
O=C1NC(=O)C2(CCc3ccccc32)C(=O)N1 |  | 0.53 | 18 | -0.02 | inhibition [7]: 12%
